Target: T1, haematopoietic prostaglandin D synthase (H-PGDS) (Homo sapiens, UniProt O60760)
T1 construct: Full length human H-PGDS cDNA (Invitrogen Ultimate ORF 10H13026) was amplified by PCR; 6-His (N); TEV protease cleavage site (N); made in house; host or cells: E. coli BL21 (DE3*), vector pET22b+
Assay: H-PGDS RapidFire high throughput mass spectrometry assay (conversion of PGH2 to PGD2)
Assay type: biochemical
Conditions: 10 nM H-PGDS, PGH2 formed in situ by COX-2 from arachidonic acid; read-out: Potency Range (mean pIC50) (converted)
Method: H-PGDS RapidFire™ High Throughput Mass Spectrometry Assay
The H-PGDS RapidFire™ mass spectrometric assay monitors conversion of prostaglandin H2 (PGH2) to prostaglandin D2 (PGD2) by haematopoietic prostaglandin D synthase (H-PGDS). In the assay format described here, the substrate (PGH2) is formed in situ by the action of cyclooxygenase-2 on arachidonic acid. This first step is set up to be fast, and generates a burst of PGH2 at ˜10 μM. The PGH2 is then further converted to PGD2 by the H-PGDS enzyme. […] Plates are then read on the RapidFire™ high throughput solid phase extraction system (Agilent) which incorporates a solid phase extraction step coupled to a triple quadrupole mass spectrometer (AB SCIEX). Relative levels of PGD2 and PGF2α, which acts as a surrogate for substrate, are measured and a percent conversion calculated.
Expression and Purification of H-PGDS Protein
Full length human H-PGDS cDNA (Invitrogen Ultimate ORF 10H13026) was amplified by PCR with the addition of a 5′ 6-His tag and TEV protease cleavage site. The PCR product was digested with Ndel and Xhol and ligated into pET22b+ (Merck Novagen®). Expression was carried out in E. coli strain BL21 (DE3*) using auto-induction Overnight Express™ Instant TB medium (Merck Novagen®) supplemented with 1% glycerol. The culture was first grown at 37° C. and the temperature was reduced to 25° C. when OD600 reached 2.0. Cells were harvested by centrifugation after a further 18 hr. 10 g of E. coli cell pellet was suspended to a total volume of 80 mL in lysis buffer (20 mM Tris-Cl pH 7.5, 300 mM NaCl, 20 mM imidazole, 5 mM β-mercaptoethanol, 10% glycerol). 1 mg/mL protease inhibitors (Protease Inhibitor Cocktail Set III, Merck Calbiochem®) and 1 mg/mL lysozyme were added to the cell suspension. The suspension was then sonicated for 5 min (UltraSonic Processor VCX 750, Cole-Parmer Instrument Co.) with a micro probe (50% amplitude, 10 sec on/off) and then centrifuged at 100,000 g for 90 min (at 4° C.). The supernatant was loaded onto a Ni-NTA HiTrap column (5 mL, GE Healthcare, pre-equilibrated in lysis buffer). The column was washed with 10 column volumes of lysis buffer and eluted with lysis buffer containing 500 mM imidazole. The pooled protein peak fractions were concentrated using a 10 kDa centrifugal filter at 3500 g and 4° C. (Amicon Ultra-15 centrifugal filter unit with Ultracel-10 membrane from Millipore). Further purification of the concentrated protein was carried out using gel filtration chromatography on a HiLoad 26/600 Superdex 75 preparative grade column (GE Healthcare Life Sciences) using 50 mM Tris pH 7.5, 50 mM NaCl, 1 mM dithiothreitol, 1 mM MgCl2. Fractions containing the protein were pooled, concentrated as described above, and stored at −80° C.
Expression and Purification of Cyclooxygenase-2 (COX-2) Protein
The full length human COX-2 gene (accession number L15326) was amplified by PCR to generate an EcoRI-HindIII fragment containing an in-frame FLAG tag. This was subcloned into pFastBac 1 (Invitrogen). The COX2 FLAG plasmid was recombined into the baculovirus genome according to the BAC-to-BAC protocol described by Invitrogen. Transfection into Spodoptera frugiperda (Sf9) insect cells was performed using Cellfectin (Invitrogen), according to the manufacturer's protocol. […] Cells were harvested using a continuous feed centrifuge run at 2500 g at a rate of approximately 2 L/min with cooling. The resultant cell slurry was re-centrifuged in pots (2500 g, 20 min, 4° C.) and the cell paste was stored at −80° C. […] The suspension was sonicated in 500 mL batches for 8×5 seconds at 10 u amplitude with the medium tip of an MSE probe sonicator and subsequently incubated at 4° C. for 90 min with gentle stirring. The lysate was centrifuged at 12000 rpm for 45 min at 4° C. in a Sorvall SLA1500 rotor. The supernatant (1400 mL) was added to 420 mL of 20 mM Tris-Cl pH 7.4, 150 mM NaCl, 0.1 mM EDTA to reduce the concentration of n-octyl-6-D-glucopyranoside to 1% w/v.

T1 sequence (O60760 whole entry): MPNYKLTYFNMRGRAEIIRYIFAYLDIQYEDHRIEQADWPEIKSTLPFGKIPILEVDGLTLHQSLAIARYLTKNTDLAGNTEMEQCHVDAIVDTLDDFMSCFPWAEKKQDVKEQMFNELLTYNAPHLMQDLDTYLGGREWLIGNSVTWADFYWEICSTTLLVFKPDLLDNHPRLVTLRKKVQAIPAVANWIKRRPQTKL

## O=C(NC1CN(c2ncccn2)C1)N1CC(Oc2cc(F)cc3scnc23)C1 [Example 129, 3-((6-Fluorobenzo[d]thiazol-4-yl)oxy)-N-(1-(pyrimidin-2-yl)azetidin-3-yl)azetidine-1-carboxamide]
  IC50: 10 to 79.4 nM

## COc1ccc(Cl)cc1O[C@H]1C[C@H](C(=O)N[C@H]2CC[C@H](C(C)(C)O)CC2)C1 [Example 275, (trans)-3-(5-Chloro-2-methoxyphenoxy)-N-((trans)-4-(2-hydroxypropan-2-yl)cyclohexyl)cyclobutanecarboxamide]
  IC50: 10 to 79.4 nM

## CC(=O)c1csc(NC(=O)[C@H]2C[C@H](Oc3cc(F)ccc3OC(F)F)C2)n1 [Example 35, (trans)-N-(4-Acetylthiazol-2-yl)-3-(2-(difluoromethoxy)-5-fluorophenoxy)cyclobutanecarboxamide]
  IC50: < 10 nM

## O=C(NC1CCCCC1)N[C@H]1C[C@H](NC(=O)[C@H]2C[C@H](Oc3cccc4scnc34)C2)C1 [Example 67, (trans)-3-(Benzo[d]thiazol-4-yloxy)-N-((trans)-3-(3-cyclohexylureido)cyclobutyl)cyclobutanecarboxamide]
  IC50: 100 to 1000 nM

## Cc1nnc(NC(=O)[C@H]2C[C@H](Oc3cccc4cccnc34)C2)s1 [Example 203, (trans)-N-(5-Methyl-1,3,4-thiadiazol-2-yl)-3-(quinolin-8-yloxy)cyclobutanecarboxamide]
  IC50: 10 to 79.4 nM

## COc1cc(F)ccc1O[C@H]1C[C@H](C(=O)Nc2nc(C(C)=O)cs2)C1 [Example 276, (trans)-N-(4-Acetylthiazol-2-yl)-3-(4-fluoro-2-methoxyphenoxy)cyclobutanecarboxamide]
  IC50: 10 to 79.4 nM

## CC(=O)N1CCCC(NC(=O)N2CC(Oc3cccc4scnc34)C2)C1 (racemic) [Example 92, Racemic N-(1-Acetylpiperidin-3-yl)-3-(benzo[d]thiazol-4-yloxy)azetidine-1-carboxamide]
  IC50: 100 to 1000 nM

## CC(C)(C)c1nnc(NC(=O)N2CC(Oc3cccc4scnc34)C2)s1 [Example 332]
  IC50: < 10 nM

## O=C(NC1CN(c2ccc(F)cn2)C1)[C@H]1C[C@H](Oc2cc(F)cc3scnc23)C1 [Example 120, (trans)-3-((6-Fluorobenzo[d]thiazol-4-yl)oxy)-N-(1-(5-fluoropyridin-2-yl)azetidin-3-yl)cyclobutanecarboxamide]
  IC50: 10 to 79.4 nM

## O=C(NC1CN(c2cccnn2)C1)[C@H]1C[C@H](Oc2cccc3scnc23)C1 [Example 245, (trans)-3-(Benzo[d]thiazol-4-yloxy)-N-(1-(pyridazin-3-yl)azetidin-3-yl)cyclobutanecarboxamide]
  IC50: 10 to 79.4 nM

## O=C(NCc1ccsc1)[C@H]1C[C@H](Oc2cccc3scnc23)C1 [Example 252]
  IC50: 100 to 1000 nM

## C=C(C)c1cnc(NC(=O)[C@H]2C[C@H](Oc3cccc4cccnc34)C2)s1 [Example 205, (trans)-N-(5-(Prop-1-en-2-yl)thiazol-2-yl)-3-(quinolin-8-yloxy)cyclobutanecarboxamide]
  IC50: < 10 nM

## CC(C)(O)[C@H]1CC[C@H](NC(=O)[C@H]2C[C@H](Oc3cc(F)cc4cccnc34)C2)CC1 [Example 295, (trans)-3-((6-Fluoroquinolin-8-yl)oxy)-N-((trans)-4-(2-hydroxypropan-2-yl)cyclohexyl)cyclobutanecarboxamide]
  IC50: 10 to 79.4 nM

## O=C(NC1CN(c2ccc(F)cn2)C1)N1CC(Oc2cc(F)cc3scnc23)C1 [Example 119, 3-((6-Fluorobenzo[d]thiazol-4-yl)oxy)-N-(1-(5-fluoropyridin-2-yl)azetidin-3-yl)azetidine-1-carboxamide]
  IC50: 10 to 79.4 nM

## CN(C)C(=O)c1coc(NC(=O)[C@H]2C[C@H](Oc3cccc4cccnc34)C2)n1 [Example 172, N,N-Dimethyl-2-((trans)-3-(quinolin-8-yloxy)cyclobutanecarboxamido)oxazole-4-carboxamide]
  IC50: 10 to 79.4 nM

## N#Cc1ccc(N2CC(NC(=O)[C@H]3C[C@H](Oc4cccc5scnc45)C3)C2)nc1 [Example 37, (trans)-3-(Benzo[d]thiazol-4-yloxy)-N-(1-(5-cyanopyridin-2-yl)azetidin-3-yl)cyclobutanecarboxamide]
  IC50: 10 to 79.4 nM

## C[C@H]1[C@@H](Oc2cccc3scnc23)CN1C(=O)N[C@H]1CC[C@H](C(C)(C)O)CC1 [Example 304, (2S,3S)-3-(Benzo[d]thiazol-4-yloxy)-N-((trans)-4-(2-hydroxypropan-2-yl)cyclohexyl)-2-methylazetidine-1-carboxamide]
  IC50: 10 to 79.4 nM

## CC(N[C@H]1CC[C@H](NC(=O)N2CC(Oc3cccc4scnc34)C2)CC1)C(F)F (mixture of isomers) [Example 40, Racemic 3-(Benzo[d]thiazol-4-yloxy)-N-((trans)-4-((1,1-difluoropropan-2-yl)amino)cyclohexyl)azetidine-1-carboxamide]
  IC50: 10 to 79.4 nM

## O=C(NC1CN(c2ccccn2)C1)[C@H]1C[C@H](Oc2cc(F)ccc2OC(F)F)C1 [Example 18, (trans)-3-(2-(Difluoromethoxy)-5-fluorophenoxy)-N-(1-(pyridin-2-yl)azetidin-3-yl)cyclobutanecarboxamide]
  IC50: 10 to 79.4 nM

## O=C(N[C@H]1CC[C@@H](NC(CO)C(F)(F)F)CC1)N1CC(Oc2cc(F)cc3scnc23)C1 (mixture of isomers) [Example 124, Racemic 3-((6-Fluorobenzo[d]thiazol-4-yl)oxy)-N-((cis)-4-((1,1,1-trifluoro-3-hydroxypropan-2-yl)amino)cyclohexyl)azetidine-1-carboxamide]
  IC50: 10 to 79.4 nM

## CC(C)(O)[C@H]1CC[C@H](NC(=O)N2CC(Oc3cccc4sncc34)C2)CC1 [Example 299, 3-(Benzo[d]isothiazol-4-yloxy)-N-((trans)-4-(2-hydroxypropan-2-yl)cyclohexyl)azetidine-1-carboxamide]
  IC50: 100 to 1000 nM

## CC(N[C@H]1CC[C@H](NC(=O)[C@H]2C[C@H](Oc3cc(F)ccc3OC(F)F)C2)CC1)C(F)F (mixture of isomers) [Example 23, Racemic (trans)-3-(2-(Difluoromethoxy)-5-fluorophenoxy)-N-((trans)-4-((1,1-difluoropropan-2-yl)amino)cyclohexyl)cyclobutanecarboxamide]
  IC50: 10 to 79.4 nM

## CCOC(=O)c1nnc(NC(=O)[C@H]2C[C@H](Oc3cccc4cccnc34)C2)[nH]1 [Example 176, Ethyl 5-((trans)-3-(quinolin-8-yloxy)cyclobutanecarboxamido)-4H-1,2,4-triazole-3-carboxylate]
  IC50: 100 to 1000 nM

## CC(C)(O)c1cnc(N2CC(NC(=O)[C@H]3C[C@H](Oc4cccc5scnc45)C3)C2)o1 [Example 49, (trans)-3-(Benzo[d]thiazol-4-yloxy)-N-(1-(5-(2-hydroxypropan-2-yl)oxazol-2-yl)azetidin-3-yl)cyclobutanecarboxamide]
  IC50: 10 to 79.4 nM

## CC(=O)c1cnc(NC(=O)[C@H]2C[C@H](Oc3cccc4ccoc34)C2)s1 [Example 264, (trans)-N-(5-Acetylthiazol-2-yl)-3-(benzofuran-7-yloxy)cyclobutanecarboxamide]
  IC50: 10 to 79.4 nM

## CC(C)(O)[C@H]1CC[C@H](NC(=O)N2CC(Oc3ccccc3OC(F)(F)F)C2)CC1 [Example 258]
  IC50: 100 to 1000 nM

## CC(C)c1nsc(NC(=O)N2CC(Oc3cccc4scnc34)C2)n1 [Example 337, 3-(Benzo[d]thiazol-4-yloxy)-N-(3-isopropyl-1,2,4-thiadiazol-5-yl)azetidine-1-carboxamide]
  IC50: < 10 nM

From patent US11053234B2 (GlaxoSmithKline Intellectual Property Development Limited, priority 2016, dated 2021)
